# Test results: ChEMBL document CHEMBL3885881, “DrugMatrix”
# Species on record: Rattus norvegicus
# Experiment: DrugMatrix - Regimen: Daily Repeat
# Format: toxicity, organism-based, Sprague-Dawley
# Parameters: regimen Daily Repeat, gender Male, age 6-8 weeks
# Details: in vivo, po, route oral GAVAGE, vehicle .5 % CMC; for ABSOLUTE BASOPHIL / ABSOLUTE EOSINOPHIL / ABSOLUTE LYMPHOCYTE / ABSOLUTE MONOCYTE / ABSOLUTE SEGMENTED NEUTROPHIL / BASOPHIL / EOSINOPHIL / HEMATOCRIT / HEMOGLOBIN / LEUKOCYTE COUNT / LYMPHOCYTE / MEAN CORPUSCULAR HEMOGLOBIN / MEAN CORPUSCULAR HEMOGLOBIN CONCENTRATION / MEAN CORPUSCULAR VOLUME / MONOCYTE / NEUTROPHIL / NUCLEATED RED BLOOD CELLS / PLATELET COUNT: tissue Blood; for ALANINE AMINOTRANSFERASE / ALBUMIN / ALKALINE PHOSPHATASE / ASPARTATE AMINOTRANSFERASE / BLOOD UREA NITROGEN / CARBON DIOXIDE / CHLORIDE / CHOLESTEROL / CREATINE PHOSPHOKINASE / CREATININE / GLUCOSE / LACTATE DEHYDROGENASE / LIPASE / PHOSPHORUS / POTASSIUM / SODIUM / TOTAL BILIRUBIN / TOTAL PROTEIN / URIC ACID: tissue Plasma
# [1] = 150 mg/kg, 72 h, dose level Low, time 3 day
# [2] = 150 mg/kg, 120 h, dose level Low, time 5 day
# [3] = 1500 mg/kg, 72 h, dose level High, time 3 day
# [4] = 1500 mg/kg, 120 h, dose level High, time 5 day
structure (smiles),measurement,setting,value
CC(C)(C)NCC(O)COc1cccc2c1CC(O)C(O)C2 (stereo not drawn) [NADOLOL],ABSOLUTE BASOPHIL,[1],0 CELLS/uL
same,ABSOLUTE EOSINOPHIL,[1],43.33 CELLS/uL
same,ABSOLUTE LYMPHOCYTE,[1],11948.67 CELLS/uL
same,ABSOLUTE MONOCYTE,[1],0 CELLS/uL
same,ABSOLUTE SEGMENTED NEUTROPHIL,[1],1241.33 CELLS/uL
same,BASOPHIL,[1],0%
same,EOSINOPHIL,[1],0.33%
same,HEMATOCRIT,[1],34.8%
same,HEMOGLOBIN,[1],13.13 G/DL
same,LEUKOCYTE COUNT,[1],13.23 x10E3/uL
same,LYMPHOCYTE,[1],90.33%
same,MEAN CORPUSCULAR HEMOGLOBIN,[1],24.5 pg
same,MEAN CORPUSCULAR HEMOGLOBIN CONCENTRATION,[1],37.73 G/DL
same,MEAN CORPUSCULAR VOLUME,[1],64.87 fL
same,MONOCYTE,[1],0%
same,NEUTROPHIL,[1],9.33%
same,NUCLEATED RED BLOOD CELLS,[1],0 /100WBC
same,PLATELET COUNT,[1],1238.33 x10E3/uL
same,ALANINE AMINOTRANSFERASE,[1],44 u/L
same,ALBUMIN,[1],4.17 G/DL
same,ALKALINE PHOSPHATASE,[1],391.33 u/L
same,ASPARTATE AMINOTRANSFERASE,[1],75.33 u/L
same,BLOOD UREA NITROGEN,[1],17 mg/dL
same,CARBON DIOXIDE,[1],24.67 mmol/L
same,CHLORIDE,[1],104 MEQ/L
same,CHOLESTEROL,[1],82.33 mg/dL
same,CREATINE PHOSPHOKINASE,[1],224 u/L
same,CREATININE,[1],0.22 mg/dL
same,GLUCOSE,[1],176.33 mg/dL
same,LACTATE DEHYDROGENASE,[1],97 u/L
same,LIPASE,[1],8 u/L
same,PHOSPHORUS,[1],14.9 mg/dL
same,POTASSIUM,[1],6.65 MEQ/L
same,SODIUM,[1],146.1 MEQ/L
same,TOTAL BILIRUBIN,[1],0.23 mg/dL
same,TOTAL PROTEIN,[1],6.1 G/DL
same,URIC ACID,[1],2 mg/dL
same,ABSOLUTE BASOPHIL,[2],0 CELLS/uL
same,ABSOLUTE EOSINOPHIL,[2],50.33 CELLS/uL
same,ABSOLUTE LYMPHOCYTE,[2],8337.33 CELLS/uL
same,ABSOLUTE MONOCYTE,[2],0 CELLS/uL
same,ABSOLUTE SEGMENTED NEUTROPHIL,[2],679 CELLS/uL
same,BASOPHIL,[2],0%
same,EOSINOPHIL,[2],0.67%
same,HEMATOCRIT,[2],35.83%
same,HEMOGLOBIN,[2],13.37 G/DL
same,LEUKOCYTE COUNT,[2],9.07 x10E3/uL
same,LYMPHOCYTE,[2],91.67%
same,MEAN CORPUSCULAR HEMOGLOBIN,[2],24.27 pg
same,MEAN CORPUSCULAR HEMOGLOBIN CONCENTRATION,[2],37.37 G/DL
same,MEAN CORPUSCULAR VOLUME,[2],64.93 fL
same,MONOCYTE,[2],0%
same,NEUTROPHIL,[2],7.67%
same,NUCLEATED RED BLOOD CELLS,[2],0 /100WBC
same,PLATELET COUNT,[2],1254.33 x10E3/uL
same,ALANINE AMINOTRANSFERASE,[2],46.33 u/L
same,ALBUMIN,[2],4.17 G/DL
same,ALKALINE PHOSPHATASE,[2],380.67 u/L
same,ASPARTATE AMINOTRANSFERASE,[2],77.67 u/L
same,BLOOD UREA NITROGEN,[2],14.67 mg/dL
same,CARBON DIOXIDE,[2],29.67 mmol/L
same,CHLORIDE,[2],101 MEQ/L
same,CHOLESTEROL,[2],84.67 mg/dL
same,CREATINE PHOSPHOKINASE,[2],179 u/L
same,CREATININE,[2],0.19 mg/dL
same,GLUCOSE,[2],140.33 mg/dL
same,LACTATE DEHYDROGENASE,[2],101 u/L
same,LIPASE,[2],8.67 u/L
same,PHOSPHORUS,[2],10.8 mg/dL
same,POTASSIUM,[2],6.14 MEQ/L
same,SODIUM,[2],147.83 MEQ/L
same,TOTAL BILIRUBIN,[2],0.27 mg/dL
same,TOTAL PROTEIN,[2],5.93 G/DL
same,URIC ACID,[2],0.8 mg/dL
same,ABSOLUTE BASOPHIL,[3],0 CELLS/uL
same,ABSOLUTE EOSINOPHIL,[3],179 CELLS/uL
same,ABSOLUTE LYMPHOCYTE,[3],10744.33 CELLS/uL
same,ABSOLUTE MONOCYTE,[3],0 CELLS/uL
same,ABSOLUTE SEGMENTED NEUTROPHIL,[3],1443.33 CELLS/uL
same,BASOPHIL,[3],0%
same,EOSINOPHIL,[3],1.33%
same,HEMATOCRIT,[3],32.37%
same,HEMOGLOBIN,[3],12.3 G/DL
same,LEUKOCYTE COUNT,[3],12.37 x10E3/uL
same,LYMPHOCYTE,[3],87.67%
same,MEAN CORPUSCULAR HEMOGLOBIN,[3],24.6 pg
same,MEAN CORPUSCULAR HEMOGLOBIN CONCENTRATION,[3],38 G/DL
same,MEAN CORPUSCULAR VOLUME,[3],64.77 fL
same,MONOCYTE,[3],0%
same,NEUTROPHIL,[3],11%
same,NUCLEATED RED BLOOD CELLS,[3],0 /100WBC
same,PLATELET COUNT,[3],1241.33 x10E3/uL
same,ALANINE AMINOTRANSFERASE,[3],51.33 u/L
same,ALBUMIN,[3],3.9 G/DL
same,ALKALINE PHOSPHATASE,[3],378.33 u/L
same,ASPARTATE AMINOTRANSFERASE,[3],79.33 u/L
same,BLOOD UREA NITROGEN,[3],16 mg/dL
same,CARBON DIOXIDE,[3],24.67 mmol/L
same,CHLORIDE,[3],109.33 MEQ/L
same,CHOLESTEROL,[3],85 mg/dL
same,CREATINE PHOSPHOKINASE,[3],126 u/L
same,CREATININE,[3],0.15 mg/dL
same,GLUCOSE,[3],170 mg/dL
same,LACTATE DEHYDROGENASE,[3],86.33 u/L
same,LIPASE,[3],8 u/L
same,PHOSPHORUS,[3],14.57 mg/dL
same,POTASSIUM,[3],7.08 MEQ/L
same,SODIUM,[3],148.37 MEQ/L
same,TOTAL BILIRUBIN,[3],0.17 mg/dL
same,TOTAL PROTEIN,[3],5.63 G/DL
same,URIC ACID,[3],2.2 mg/dL
same,ABSOLUTE BASOPHIL,[4],0 CELLS/uL
same,ABSOLUTE EOSINOPHIL,[4],191.67 CELLS/uL
same,ABSOLUTE LYMPHOCYTE,[4],13307.33 CELLS/uL
same,ABSOLUTE MONOCYTE,[4],0 CELLS/uL
same,ABSOLUTE SEGMENTED NEUTROPHIL,[4],867.67 CELLS/uL
same,BASOPHIL,[4],0%
same,EOSINOPHIL,[4],1.33%
same,HEMATOCRIT,[4],33.3%
same,HEMOGLOBIN,[4],12.53 G/DL
same,LEUKOCYTE COUNT,[4],14.37 x10E3/uL
same,LYMPHOCYTE,[4],92.67%
same,MEAN CORPUSCULAR HEMOGLOBIN,[4],23.37 pg
same,MEAN CORPUSCULAR HEMOGLOBIN CONCENTRATION,[4],37.67 G/DL
same,MEAN CORPUSCULAR VOLUME,[4],62.2 fL
same,MONOCYTE,[4],0%
same,NEUTROPHIL,[4],6%
same,NUCLEATED RED BLOOD CELLS,[4],0 /100WBC
same,PLATELET COUNT,[4],1258.33 x10E3/uL
same,ALANINE AMINOTRANSFERASE,[4],44.67 u/L
same,ALBUMIN,[4],3.9 G/DL
same,ALKALINE PHOSPHATASE,[4],343 u/L
same,ASPARTATE AMINOTRANSFERASE,[4],80 u/L
same,BLOOD UREA NITROGEN,[4],16.33 mg/dL
same,CARBON DIOXIDE,[4],25.33 mmol/L
same,CHLORIDE,[4],103.67 MEQ/L
same,CHOLESTEROL,[4],74 mg/dL
same,CREATINE PHOSPHOKINASE,[4],262 u/L
same,CREATININE,[4],0.21 mg/dL
same,GLUCOSE,[4],152.33 mg/dL
same,LACTATE DEHYDROGENASE,[4],268.33 u/L
same,LIPASE,[4],8 u/L
same,PHOSPHORUS,[4],13 mg/dL
same,POTASSIUM,[4],6.63 MEQ/L
same,SODIUM,[4],146.2 MEQ/L
same,TOTAL BILIRUBIN,[4],0.13 mg/dL
same,TOTAL PROTEIN,[4],5.7 G/DL
same,URIC ACID,[4],1.47 mg/dL
